# Measurements published in US9732119B2, “Immunomodulators” (BRISTOL-MYERS SQUIBB COMPANY, priority 2014, dated 2017).
# Positions of bridges follow the written chain, without caps; N, C: chain ends. Non-standard residues stand in square brackets, D forms with d. Residues, ends and D or L forms follow the SMILES beside them. Trp(1-CH2COOH) = N[C@@H](Cc1cn(CC(=O)O)c2ccccc12)C(=O)O; Hyp = O=C(O)[C@@H]1C[C@@H](O)CN1; Aad = N[C@@H](CCCC(=O)O)C(=O)O; NMeNle = CCCC[C@H](NC)C(=O)O; Pip = O=C(O)[C@@H]1CCCCN1; Dab = NCC[C@H](N)C(=O)O; Dap = NC[C@H](N)C(=O)O
# Target: T1, PD-1-Ig binding to PD-L1-TVMV-His (PD-L1-His) (Homo sapiens, UniProt Q9NZQ7)
# T1 construct: hPDL1(19-239)-TVMV-His; made in house; host or cells: HEK293T cells
# T1 sequence (Q9NZQ7 with tags, fused parts or gaps): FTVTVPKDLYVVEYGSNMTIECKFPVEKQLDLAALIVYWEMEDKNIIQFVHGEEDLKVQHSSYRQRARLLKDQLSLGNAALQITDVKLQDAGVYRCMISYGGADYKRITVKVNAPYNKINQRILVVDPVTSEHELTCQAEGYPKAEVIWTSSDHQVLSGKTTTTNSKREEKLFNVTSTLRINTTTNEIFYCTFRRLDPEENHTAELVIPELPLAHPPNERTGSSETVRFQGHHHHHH
# Experiment: PD-1/PD-L1 Homogenous Time-Resolved Fluorescence (HTRF) binding assay
# Details: PD-1-Ig (20 nM) / PD-L1-His (10 nM); range classes
# Summary of the method: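 HTRF competition: compound pre-incubated 15 min with PD-L1-His (10 nM final), then PD-1-Ig (20 nM final) added for 15 min in dPBS, 0.1% BSA, 0.05% Tween-20. Detection with Eu-cryptate anti-Ig (1 nM) and APC anti-His (20 nM) antibodies.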
row,IC50 [nM],SMILES
1,1 to 9.9,CCCC[C@H]1C(=O)N(C)[C@@H](CCCC)C(=O)N[C@@H](CCC(=O)O)C(=O)N[C@H](C(N)=O)CNCC(=O)N[C@@H](Cc2ccc(O)cc2)C(=O)N2CCCC[C@H]2C(=O)N[C@@H](CC(N)=O)C(=O)N2CCC[C@H]2C(=O)N[C@@H](Cc2c[nH]cn2)C(=O)N[C@@H](CCC(=O)O)C(=O)N2C[C@H](O)C[C@H]2C(=O)N[C@@H](Cc2c[nH]c3ccccc23)C(=O)N[C@@H](C)C(=O)N[C@@H](Cc2cn(CC(=O)O)c3ccccc23)C(=O)N1C [Example 9055]
2,1 to 9.9,CCCC[C@H]1C(=O)N(C)[C@@H](CCCC)C(=O)N[C@@H](CC(C)C)C(=O)N[C@H](C(=O)NCC(N)=O)CNCC(=O)N[C@@H](Cc2ccc(O)cc2)C(=O)N2CCCC[C@H]2C(=O)N[C@@H](CC(N)=O)C(=O)N2CCC[C@H]2C(=O)N[C@@H](CN)C(=O)N[C@@H](CC(C)C)C(=O)N2C[C@H](O)C[C@H]2C(=O)N[C@@H](Cc2c[nH]c3ccccc23)C(=O)N[C@@H](CCN)C(=O)N[C@@H](Cc2cn(CC(=O)O)c3ccccc23)C(=O)N1C [Example 1037]
3,1 to 9.9,CCCC[C@H]1C(=O)N(C)[C@@H](CCCC)C(=O)N[C@@H](CC(C)C)C(=O)N[C@H](C(N)=O)CNCC(=O)N[C@@H](Cc2ccc(F)cc2)C(=O)N2CCCC[C@H]2C(=O)N[C@@H](CC(N)=O)C(=O)N2CCC[C@H]2C(=O)N[C@@H](CCC(N)=O)C(=O)N[C@@H](CC(=O)O)C(=O)N2C[C@H](O)C[C@H]2C(=O)N[C@@H](Cc2c[nH]c3ccccc23)C(=O)N[C@@H](CC(N)=O)C(=O)N[C@@H](Cc2cn(CC(=O)O)c3ccccc23)C(=O)N1C [Example 9031]
4,1 to 9.9,CCCC[C@H]1C(=O)N(C)[C@@H](CCCC)C(=O)N[C@@H](CC(C)C)C(=O)N[C@H](C(N)=O)CNCC(=O)N[C@@H](Cc2ccc(O)cc2)C(=O)N2CCCC[C@H]2C(=O)N[C@@H](CC(N)=O)C(=O)N2CCC[C@H]2C(=O)N[C@@H](Cc2c[nH]cn2)C(=O)N[C@@H](CCC(=O)O)C(=O)N2C[C@H](O)C[C@H]2C(=O)N[C@@H](Cc2c[nH]c3ccccc23)C(=O)N[C@@H](C)C(=O)N[C@@H](Cc2cn(CC(=O)O)c3ccccc23)C(=O)N1C [Example 9050]

# The next lines start with the compound.
row,SMILES,IC50 [nM]
1,CCCC[C@H]1C(=O)N(C)[C@@H](CCCC)C(=O)N[C@@H](CC(C)C)C(=O)N[C@H](C(N)=O)CCCC(=O)N[C@@H](Cc2ccc(O)cc2)C(=O)N2CCCC[C@H]2C(=O)N[C@@H](CC(=O)O)C(=O)N2CCC[C@H]2C(=O)N[C@@H](CN)C(=O)N[C@@H](CC(C)C)C(=O)N2C[C@H](O)C[C@H]2C(=O)N[C@@H](Cc2c[nH]c3ccccc23)C(=O)N[C@@H](CCN)C(=O)N[C@@H](Cc2cn(CC(=O)O)c3ccccc23)C(=O)N1C [Example 10552] (Y[Pip]DP[Dap]L[Hyp]W[Dab][Trp(1-CH2COOH)][NMeNle][NMeNle]L[Aad]-NH2; lactam N-14),1 to 9.9
2,CCCC[C@H]1C(=O)N(C)[C@@H](CCCC)C(=O)NC(CC(C)C)C(=O)N[C@H](C(=O)NCC(N)=O)CNCC(=O)N[C@@H](Cc2ccc(O)cc2)C(=O)N(C)[C@@H](C)C(=O)N[C@@H](CC(N)=O)C(=O)N2CCC[C@H]2C(=O)N[C@@H](CN)C(=O)N[C@@H](CCC(=O)O)C(=O)N2C[C@H](O)C[C@H]2C(=O)N[C@@H](Cc2c[nH]c3ccccc23)C(=O)N[C@@H](CCN)C(=O)N[C@@H](Cc2cn(CC(=O)O)c3ccccc23)C(=O)N1C (stereo partly shown) [Example 1031],1 to 9.9
3,CCCC[C@H]1C(=O)N(C)[C@@H](CCCC)C(=O)N[C@@H](CC(C)C)C(=O)N[C@H](C(=O)NCC(N)=O)CCCNCC(=O)N[C@@H](Cc2ccc(O)cc2)C(=O)N(C)[C@@H](C)C(=O)N[C@@H](CC(N)=O)C(=O)N2CCC[C@H]2C(=O)N[C@@H](Cc2cnc[nH]2)C(=O)N[C@@H](CCC(N)=O)C(=O)N2C[C@H](O)C[C@H]2C(=O)N[C@@H](Cc2c[nH]c3ccccc23)C(=O)NCC(=O)N[C@@H](Cc2cn(CC(=O)O)c3ccccc23)C(=O)N1C [Example 10022],10 to 99
